In US20140120063A1, “NUTRITIONAL AND METABOLIC APPROACHES TO PREVENT EMERGENCE OF ENTERIC PATHOGENS” (The Board of Trustees of the Leland Stanford Junior …, priority 2012, published 2014):

How the values were obtained:
[1] = Amount of sialic acid in cecal contents after sialic acid administration; type: in vivo, mice; conditions: 1% in water plus 1 mg oral gavage twice a day
Description: (§1) For sialic acid administration experiments, N-acetylneuraminic acid (Calbiochem or Santa Cruz Biotechnology) was administered in the water at a 1% concentration. Additionally, mice were orally gavaged 1 mg of sialic acid twice a day. The amount of sialic acid in the cecal contents were calculated to equal approximately 700 pmoles/mg of cecal contents, which mirrors the average concentration of free sialic acids we quantified post-antibiotic treatment (725 pmoles/mg).
All steps were carried out at 4° C. to minimize enzymatic hydrolysis. Approximately 200 mg of flash-frozen cecal contents were weighed out and resuspended in 400 μl dH2O, Samples were vortexed for 30 minutes at max speed and centrifuged for 15 minutes at 14,000×g in the tabletop centrifuge.
The supernatant was stored, and the pellet resuspended in an additional 400 μl dH2O. The tubes were vortexed individually until the pellet was dispersed, and then all samples were vortexed for 30 minutes, centrifuged, and supernatants were pooled. This process was repeated once more for a total volume of approximately 1 ml. […] The resulting product was analyzed by reverse-phase HPLC using a C18 column (Dionex) at a flow rate of 0.9 ml/min, using a gradient of 5% to 11% acetonitrile in 7% methanol. […] The DMB-derivatized sialic acids were identified and quantified by comparing elution times and peak areas to known standards.

[2] = test system: C. difficile; assay: C. difficile density in feces of gnotobiotic mice given exogenous free sialic acid; type: in vivo
Description: (BioTek, Winooski, Vt.) every 30 minutes, at 37° C. anaerobically (6% H2, 20% CO2, 74% N2). Fecal densities (CFU) of C. difficile were quantified by duplicate sampling with 1 μl loops and subsequent dilution and spot plating on blood-BHI supplemented with erythromycin.
Germ-free Swiss-Webster mice were maintained in gnotobiotic isolators and fed an autoclaved standard diet (Purina LabDiet 5K67) or a polysaccharide-deficient diet (Sonnenburg, E. D., et al. Cell, 2010. 141(7): p. 1241-52), in accordance with A-PLAC, the Stanford IACUC. For all experiments involving C. difficile colonization of germ-free mice, the diet was switched to polysaccharide-deficient chow one day before inoculation with C. difficile.
as §1

[3] = test system: S. typhimurium nanA mutant; assay: Growth of S. typhimurium nanA mutant in minimal medium in the presence of sialic acid; type: cell-based; conditions: M9 minimal media, 0.25% sialic acid with glucose or glycerol
Description: FIG. 8. Requirement for S. typhimurium nan and fuc operons for in vitro growth on sialic acid and fucose. A) S. typhimurium SL1344 encodes the genes necessary to catabolize sialic acid and fucose. The nan and fuc operons are pictured in their genomic context. B) Growth of wild-type S. typhimurium and mutant S. typhimurium strains in M9 minimal medium containing 0.5% glucose (M9+glucose), 0.5% sialic acid (M9+sialic acid), or 0.5% fucose (M9+fucose). OD600 measurements were taken every 30 minutes. C, D) ΔNanA E. coli (Keio strain JW3194) and wild-type and ΔNanA S. typhimurium SL1344 strains were grown aerobically in M9 minimal media containing 0.5% total carbohydrate. Cells were grown in (C) 0.5% glucose or 0.25% glucose and 0.25% sialic acid, and (D) 0.5% glycerol (gro) or 0.25% glycerol and 0.25% sialic acid. Optical densities were measured at indicated times.
All strains of S. typhimurium were derived from wild-type strain SL1344, which is naturally streptomycin-resistant. […] Fecal densities (CFU) of S. typhimurium were quantified by duplicate sampling with 1 μl loops, and subsequent dilution and spot plating on plain LB agar for gnotobiotic experiments and LB agar with streptomycin for conventional experiments.

[4] = test system: C. difficile nanE; assay: C. difficile nanE gene expression (qRT-PCR) in feces of mice given exogenous free sialic acid; type: in vivo; conditions: sialic acid-fed Bt-ΔBT0455-associated mice, 1 day post-infection
Description: as §1
qRT-PCR analysis was performed on RNA extracted from cecal or fecal contents by phenolchloroform extraction and bead beating. Superscript II (Invitrogen) was utilized to convert RNA to cDNA, and SYBR Green (ABgene) in a MX3000P thermocycler (Strategene) was utilized. Fold changes were normalized to in vitro growths in Minimal Medium containing 0.5% glucose (MM-G) for C. difficile and LB for S. typhimurium.

Structure (SMILES): CC(=O)N[C@H]1[C@H]([C@H](O)[C@H](O)CO)OC(O)(C(=O)O)C[C@@H]1O (some centres unmarked) [sialic acid, N-acetylneuraminic acid]
- amount of sialic acid in the cecal contents [1]: approximately 700 pmoles/mg of cecal contents
- C. difficile density in the lumen of the gut ([2]; GF mice infected with C. difficile, free sialic acid administration vs PBS, 1 day post-inoculation): higher densities
- C. difficile density ([2]; feces, 1 day post-infection, Bt-ΔBT0455 monoassociated mice fed free sialic acid (1% in water plus 1 mg gavage twice a day), unsupplemented controls 6.8×10^7): 4.8×10^8 CFU/ml
- toxicity of sialic acid to the nanA mutant [3]: did not pose a toxicity issue
- C. difficile nanE expression, fold higher over PBS-treated controls [4]: 58 fold
